Assay results from US8252835B2, “Compounds and methods for treating estrogen receptor-related diseases” (Shenogen Pharma Group Ltd., priority 2006, dated 2012).

Key:
MCF7 cells [1] = test: MCF7 colony formation; assay type: cell-based; settings: zero to 25 μM, as concentration rose, 10 days, FIG. 5a
breast cancer cells = settings: background, literature (Liu 2005; Wang 2004; Ye 2005); cited from earlier work
[2] = tested on: human breast cancer BCAP-37 cells xenografts; test: Human breast cancer BCAP-37 xenografts in nude mice; assay type: in vivo, BALB/c-nu mice; settings: 15 days, FIG. 14a
Source text: The original nude mice bearing BCAP-37 breast cancer were provided by the Institute of Materia Medica, Chinese Academy of Medical Sciences. Tumor tissues were taken from the mice and cut into small pieces. Several pieces of the tumor tissues were implanted into the armpit under the right front limb of female nude mice (provided by the Division of Experimental Animals of the Medical School of Beijing University). […] Starting on the seventh day, the mice were fed with Icaritin at three dosages. The high dosage was 0.7 mg per mouse per day (about 33 mg/kg/day). The medium dosage was 0.35 mg per mouse per day (about 16.5 mg/kg/day). The low dosage was 0.18 mg per mouse per day (about 8.25 mg/kg/day). […] Olive oil was used as a negative control wherein each mouse was fed with 0.1 ml of olive oil. […] Then the mice were sacrificed and the tumor tissues were dissected from the mice and weighed. Two parallel experiments were done for the tests. Ten female BALB/c-nu mice were used for each test compounds and each dosages for one of the two parallel experiment. Eight female BALB/c-nu mice were used for each test compounds and each dosages for the other parallel experiment. […] The effect of IC 163 on inhibiting breast cancer growth was tested in the same assay as described above. IC 163 was tested at the dosage of 0.7 mg per mouse per day (about 35 mg/kg/day). […] Olive oil was used as a negative control.

[3] = tested on: Tamoxifen resistant MCF7 cells (MCF7/TAM); test: Surviving cell count, Tamoxifen resistant MCF7 cells; settings: two weeks, FIG. 6
MDA-MB-231 cells [4] = test: MDA-MB-231 colony formation, crystal violet staining; assay type: cell-based; settings: 10 days, FIG. 4
[5] = tested on: MDA-MB-231 cell xenografts; test: MDA-MB-231 xenografts in nude mice, treatment right after implantation; assay type: in vivo; settings: 1 mg per mouse twice a week for 36 days, started right after injection, FIG. 13
Method: Tumor formation was assayed in female athymic nude mice (6 weeks old, strain CDI nu/nu, Charles River Breeding Laboratory). MDA-MB-231 cells at the concentration of 1×10^7 cells in 200 μl Matrigel (BD Biosciences) were injected into the mice by the mammary fatpad injection. A group of 5 mice were injected with the breast cancer cells. The mice were treated with Icaritin right after the injection. […] Then the mice were sacrificed and the tumor tissues were dissected from the mice, photographed and weighed.

[6] = tested on: MDA-MB-231 cell xenografts; test: MDA-MB-231 xenografts in nude mice, established tumors; assay type: in vivo; settings: 5 mg per mouse by gavage every other day for 30 days, FIG. 11
Method: (§1) The vial was wrapped with aluminium foil and placed on a rocker at 37° C. for several hours. […] The Icaritin solution was administered to mice using the gavage technique. For gavaging, we used Animal Feeding Needles (Popper; cat No. 9921, size: 20GX1.1/2).
(§2) Tumor formation was assayed in female athymic nude mice (6 weeks old, strain CDI nu/nu, Charles River Breeding Laboratory). MCF7 cells or MDA-MB-231 cells at the concentration of 1×10^7 cells in 200 μl Matrigel (BD Biosciences) were injected into the mice by the mammary fatpad injection. A group of 5 mice were injected with each type of breast cancer cells. […] Tumor disappearance was determined by palpation, and the sizes of tumors were also monitored by measuring two perpendicular diameters with vernier calipers every other day and photographed.

[7] = tested on: cervical cancer U14 cells; test: Murine cervical cancer U14 tumors in ICR mice; assay type: in vivo; settings: 14 days, FIG. 15a
Method: The original ICR mice containing cervical cancer U14 cell line were provided by the Institute of Materia Medica, Chinese Academy of Medical Sciences. Five ml of abdominal fluid was drawn from the lower abdomen of the mice. The fluid was diluted at the ratio of 1:5 with saline. 0.2 ml of the diluted abdominal fluid was injected subcutaneously at the right front limb and chest of female ICR mice (provided by the Division of Experimental Animals of the Medical School of Beijing University). After the implantation, the mice were treated right away with Icaritin, Tamoxifen and olive oil, respectively. Icaritin was given at three dosages. The high dosage was 0.7 mg per mouse per day (about 33 mg/kg/day). The medium dosage was 0.35 mg per mouse per day (about 16.5 mg/kg/day). The low dosage was 0.18 mg per mouse per day (about 8.25 mg/kg/day). […] Olive oil was used as a negative control wherein each mouse was fed with 0.1 ml of olive oil. […] Then the mice were sacrificed and the tumor tissues were dissected from the mice and weighed. Ten female ICR mice were used for each test compounds and dosages. Three parallel experiments were carried out. […] The tumor growth inhibition rate was calculated using the same formula as Example 11.

[8] = tested on: human endometrial cancer Hec1A cells; test: MTT assay of Hec1A cell growth; assay type: cell-based; settings: 24 hours
Method: Human endometrial cancer Hec1A cells (ATCC No.: HTB-112™) were subseeded in a 96-well culture plate at a concentration of 5×10^3 cells/well and were cultured in DMEM containing high glucose medium (HyClone, SH30022.01B). […] The cells then were incubated with 0.5 mg/ml 3-(4,5-dimethylthiazol-2-yl)-2,5-diphenyltetrazolium bromide (MTT) for 4 hours at 37° C. wherein the MTT was reduced to insoluble purple formazan by the active mitochondrial reductase enzymes in the living cells. Then the excessive liquid MTT was removed from the reaction mixture. 150 μl of DMSO was added to dissolve the purple formazan into a colored solution. The optical density of the colored solution was measured at 490 nm using a microplate reader.

LnCap cells = test: LNCap prostate cancer surviving cell count; assay type: cell-based; settings: two weeks, FIG. 10
MDA-MB-231 cells [9] = test: MDA-MB-231 cells treated for a week, examined under microscope; assay type: cell-based; settings: 10 μM, one week, FIG. 3
MCF7 cell xenografts = test: MCF7 xenografts in nude mice, established tumors; assay type: in vivo; settings: 5 mg per mouse by gavage every other day for 15 days, FIG. 12
Method: as §1, §2

H226 Lung Cancer Cells = test: H226 lung cancer surviving cell count; assay type: cell-based; settings: two weeks, FIG. 10
MCF7 cells [10] = test: MCF7 surviving cell count (hemocytometer); settings: two weeks
PC3 cells = test: PC3 prostate cancer surviving cell count; assay type: cell-based; settings: two weeks, FIG. 10
[11] = tested on: MCF7 cells over-expressing ER-α36 (MCF7/ER36); test: Surviving cell count, MCF7 cells over-expressing ER-α36; assay type: cell-based; settings: two weeks, FIG. 6
Source text: MCF7 cells over-expressing ER-α36 were made by stably transfecting MCF cells with an ER-α36 expression vector. The ER-α36 expression vector was constructed by cloning a 1.1-kb cDNA fragment of ER-α36 from pBluescript plasmid into a mammalian expression vector pCB6+ as described before (Wang et al., 2005, BBRC, 336:1023-1027). The constructed ER-α36 expression vector contains the cytomegalovirus (CMV) early promoter. MCF7 cells were transfected with the ER-α36 expression vector using the FuGene6 transfection reagent (Roche Molecular Biochemicals). Forty-eight hours after transfection, the cells were re-plated and selected with 500 μg/ml of G418 (Invitrogen) for about two weeks until colonies appeared. The clones were then pooled and cultured to confirm the expression of ER-α36 by Western blot analysis.

[12] = high dosage 0.7 mg per mouse per day
[13] = low dosage 0.18 mg per mouse per day
[14] = medium dosage 0.35 mg per mouse per day

COc1ccc(-c2oc3c(CC=C(C)C)c(O)cc(O)c3c(=O)c2O)cc1 [Icaritin]
number of colonies of MCF7 cells (MCF7 cells [1]): significantly reduced | proliferation of breast cancer cells (breast cancer cells): significantly increase | tumor weight compared with negative controls [2, 12]: reduced tumor weights | tumor weight compared with negative controls [2, 13]: reduced tumor weights | tumor weight compared with negative controls [2, 14]: reduced tumor weights | growth of cells (numbers of survived cells) ([3]; 5 μM): significantly inhibited | inhibition compared with MCF7 cells ([3]; 5 μM): stronger | numbers of cells ([3]; 10 μM): near zero | numbers of colonies of MDA-MB-231 cells (MDA-MB-231 cells [4]; 5 μM): decreased | numbers of colonies of MDA-MB-231 cells (MDA-MB-231 cells [4]; 10 μM): reduced to near zero | tumor size [5]: tumor size reduction | tumor size [6]: significant tumor size reduction | tumor weight compared with negative control [7, 12]: reduced tumor weights | tumor weight compared with negative control [7, 13]: reduced tumor weights | tumor weight compared with negative control [7, 14]: reduced tumor weights | effect on the growth of Hec1A cells ([8]; 0 to 5 μM): significant inhibitory effect | optical density at 490 nm (MTT) ([8]; increased concentrations 0 to 5 μM, FIG. 21): declined smoothly | numbers of cells (LnCap cells; 5 μM): decreased | numbers of cells (LnCap cells; 10 μM): further reduced | cell morphology (MDA-MB-231 cells [9]): features characteristic of apoptotic cells | number of surviving cells (MDA-MB-231 cells [9]): dramatically reduced | tumor size (MCF7 cell xenografts): significant tumor size reduction | numbers of cells (H226 Lung Cancer Cells; 5 μM): decreased | numbers of cells (H226 Lung Cancer Cells; 10 μM): further reduced | numbers of surviving MCF7 cells (MCF7 cells [10]; 5 μM and up, FIG. 5b): significantly reduced | growth of cells (numbers of survived cells) (MCF7 cells [10]; 5 μM, FIG. 6): significantly inhibited | numbers of cells (MCF7 cells [10]; 10 μM, FIG. 6): near zero | numbers of cells (PC3 cells; 5 μM): decreased | numbers of cells (PC3 cells; 10 μM): further reduced | growth of cells (numbers of survived cells) ([11]; 5 μM): significantly inhibited | inhibition compared with MCF7 cells ([11]; 5 μM): stronger | numbers of cells ([11]; 10 μM): near zero
